This series deals with Female C57BL/6 mice. As to the kind of experiment: Animal study: lymphocytes and red blood cells in blood enumerated by hematology analyzer 24 hours after oral gavage. The note with it: oral gavage 400 micromol/kg, 24 hours later, vs vehicle (PEG300). The format is in vivo. The method, then: Female C57BL/6 mice 6-8 weeks old were treated by oral gavage with vehicle (PEG300) or compound 510 at 400 micromol/kg. 24 hours later, lymphocytes and red blood cells (RBC) in blood were enumerated by hematology analyzer (XT-2000i). The results are depicted in FIG. 1.

With `CC(C)C(=O)N(CCO)[C@H]1CCN(c2nc3cc(F)c(F)cc3nc2-c2cccc(OC(F)(F)F)c2)C1` [Compound 510, (S)—N-(1-(6,7-difluoro-3-(3-(trifluoromethoxy)-phenyl)quinoxalin-2-yl)pyrrolidin-3-yl)-N-(2-hydroxyethyl)isobutyramide], under “FIG. 1A”, the “number of lymphocytes in blood” value is given as “substantially reduced”. In addition, the “number of red blood cells (RBC) in blood” value (FIG. 1B) is listed as “remained unchanged”.
